Consider two compounds from patent US20250188032A1, “NITROGEN-CONTAINING HETEROCYCLIC COMPOUNDS AND USES THEREOF” (BNH RESEARCH CO., LTD., priority 2022, published 2025).

One series concerns 293T cells. Briefly: Cytotoxicity test (CCK-8 cell viability) in 293T cells. It is filed as cell-based, human.
The test system of series [1] is HDAC4, BDNF and GluN2B expression in primary cultured cortical neurons. Briefly: Expression of HDAC4, BDNF and GluN2B in primary cultured cortical neurons. The class given is cell-based, mouse. As to the method: Meanwhile, primary cortical neuron cells were isolated from cerebral cortices of 18-day-old mouse fetuses, incubated in prep media (composition (mM). NaCl 107.5. NaH2PO4 1, NaHCO333.5, glucose 11, HEPS 1%, penicillin-streptomycin 1%) containing 0.25% trypsin and DNase1 for 30 minutes, dissociated into single cells, and seeded. Primary cortical neuron cells were grown in Neurobasal medium supplemented with 1% (v/v) B27, 1% penicillin (100 U/mL), streptomycin ([…]), and 1% Glutamax. Cells were maintained in a humidified atmosphere of 95% air and 5% CO2 at 37° C. Drug efficacy was evaluated after culturing primary cortical neuron cells for 14 days.
The amount of GluN2B reacted with the compound of the present disclosure was measured using Western blot. The fetal cerebral cortex was extracted from mice at 17 days of gestation, dissociated into single cells, cultured for 13 days, and treated with BnH drugs for 24 hours. The drug-treated cells were subjected to protein lysate preparation using RIPA protein lysis buffer containing protease and phosphatase inhibitors. The protein concentration was determined using a BCA protein assay kit (Pierce Biotechnology) using bovine serum albumin as a standard. Equal amounts of protein (20 μg per lane) were separated by electrophoresis on SDS-polyacrylamide gels at 90 V for 2 hours, then transferred from the SDS-polyacrylamide gel to PVDF membrane at 100 V for 1 hour. Then, primary reaction with GluN2B antibody (ab65783, Abcam) was performed at 4° C. for 1 day, washed three times at 10-minutes intervals with 1×PBT, and secondary reaction was performed with anti-mouse antibody (sc-2357, Santa Cruz) for 1 hour, followed by washing three times at 10-minutes intervals with 1×PBT. Western blotting was performed as described above to confirm GluN2B protein expression. Subsequently, each blot was re-probed using anti-β-actin antibody (sc-47778, Santa Cruz). Housekeeping protein β-actin was detected as a normalization control.

Series [2] relates to HDAC4, BDNF and GluN2B expression in C57BL/6J mice cortex. The series is described as follows: Western blotting of HDAC4, BDNF and GluN2B in mouse cortical tissue after administration. It is filed as in vivo. On the procedure:
For preparation of thalamocortical (TC) slices, 9- to 10-week-old male C57BL/6J rodents (mice) were anesthetized with isoflurane. Then, the brains were rapidly cooled by transcardial perfusion with ice-cold sucrose-artificial cerebrospinal fluid (aCSF). The brains were removed and placed in ice-cold sucrose aCSF. Paracoronal slices were prepared at a 50° angle to the midline on a ramp at an angle of 10°. The slices were then incubated in aCSF for 30 minutes at 35° C. to recover.
Subsequently, the slices were incubated in aCSF for 1 to 4 hours at room temperature (23 to 25° C.) before being placed in the recording chamber for experiment. Standard aCSF contains saturated with 95% O2/5% CO2.
All electrophysiological experiments were conducted at 27 to 29° C. Rodent (mice) was perfused with […] a sucrose-based aCSF solution (4° C.) using gravity. The brain of the rodent (mice) was removed and cut into 400 urn at a 50° angle (mouse at a 55° angle) to attach the cut portion to the vibratome disc to be the bottom. Brain slice was incubated in Incubate aCSF solution at 35° C. for 30 minutes or Incubate aCSF solution at RT for 1 hour. Cortical tissue from mice was prepared according to protocol above then was homogenized and lysed for protein extraction. The protein lysate was prepared from the tissue with NP40(FNN0021, Invitrogen) protein lysis buffer containing protease & […] according to the manufacturer's instruction. Protein concentrations were determined using the BCA Protein Assay Kit (Pierce Biotechnology) with bovine serum albumin as a standard. Equal amounts of proteins (20 μg per lane) were separated by electrophoresis on 8% or 12% SDS-polyacrylamide gel, followed by blotting onto PVDF membranes (GE Healthcare). To block nonspecific binding, the membranes were incubated for 1 h at room temperature in 5% non-fat dry milk in PBST (150 mM NaCl, 50 mM Tris, pH 7.4, 0.05% Tween 20). The following antibodies were incubated overnight at 4° C. in 2% blocking solution: Anti-HDAC4 (SAB4300413, Sigma-Aldrich), Anti-BDNF (ANT-010, Alomone Las), Anti-NMDAR2B (ab65783, abcam plc). Following the incubation with antibodies and several rinses in PBST, the membranes were incubated for 1 h with the mouse anti-rabbit IgG-HRP conjugated secondary anti-bodies (sc-2357, Santa Cruz). Each blot was subsequently re-probed with anti-β-actin antibody (sc-47778, Santa Cruz). Housekeeping protein β actin was detected as a normalization control. Antibodies used for methods described herein are as follows: […]

Setting [3] is: 1 μM, 24-hour treatment, cultured primary cortical neurons (DIV 14).
The mark [4] stands for this setting: oral, 1 mg/kg, 8-week-old C57BL/6J mice, sacrificed 2 days later, vs vehicle.
[5] abbreviates: primary cultured cortical neurons.

As for `C[C@@H]1CC[C@H](C(=O)O)CN1C(=O)Cc1ccc(F)cc1Cl` [BnH12001 enantiomer (3S,6R, 98%<), (3S,6R)-1-(2-(2-chloro-4-fluorophenyl)acetyl)-6-methylpiperidine-3-carboxylic acid], in the series on 293T cells (10 uM, 24 hours co-incubation, 293T cell line, % of control), the “Cell viability test results (CCK) 10 uM” value is given as 99%<. The “Cell viability test results (CCK) 100 uM” value with 293T cells (100 uM, 24 hours co-incubation, 293T cell line, % of control) is 95%<. Besides, the results for the BDNF expression entry in series [1] (setting [3]) and in series [2] (setting [4]) were “increased” and “significantly increased”, respectively. Besides, the GluN2B expression result is “increased” in series [1] (setting [3]); “significantly increased” in series [2] (setting [4]); “significantly increased” in series [2] (oral, 1 mg/kg, 13-month-old C57BL/6J mice, sacrificed 2 days later, vs vehicle). Moreover, in series [2] (setting [4]), the HDAC4 expression entry was “effectively degraded”.

Regarding `CC1CCC(C(=O)O)CN1C(=O)Cc1ccc(F)cc1Cl` (racemic) [BnH12001, 1-(2-(2-chloro-4-fluorophenyl)acetyl)-6-methylpiperidine-3-carboxylic acid], in the series with 293T cells (0, 0.1, 1, 10, 100 μM, 293T), the “Change in cell viability” value was “no significant change in cell viability”. Besides, in series [1] (setting [5]), the BDNF expression result was “significantly increased”, the GluN2B expression entry is given as “significantly increased” and the HDAC4 protein expression result is reported as “significantly suppressed”. In addition, the “HDAC4 protein expression in mice barrel cortex” value in series [2] (intraperitoneal administration) is reported as “significantly suppressed”. For the same compound, the “HDAC4 protein expression in mice barrel cortex” value in series [2] (oral administration) is on record as “significantly suppressed”. Besides, in series [2] (oral and intraperitoneal administration, mice barrel cortex), the “Duration of inhibitory effect on HDAC4 protein expression” value was at least 9 days.
